The record followed here is ChEMBL document CHEMBL1137690, “Novel amide derivatives as inhibitors of histone deacetylase: design, synthesis and SAR” (Eur J Med Chem, 2009).

Assay [1] has as its system HeLa. Description: Antiproliferative activity against human HeLa cells after 4 hrs by WST-1 assay. It counts as functional, cell-based. On the technique in general: Tetrazolium dyes change colour on reduction, which living cells bring about.
Assay [2] deals with Histone deacetylase. Description: Inhibition of HDAC from human HeLa cells. It counts as cell-based.
Assay [3] has as its system P388. Description: Antitumor activity in mouse P388 cells xenografted B6D2F1 mouse assessed as increase in life span at 60 mg/kg/day, ip administered 3 to 7 days postxenografting. Conditions: route intraperitoneal. It counts as functional.
In assay [4] the test system is P388. Kind of assay: Antitumor activity in mouse P388 cells xenografted B6D2F1 mouse assessed as increase in life span at 20 mg/kg/day, ip administered 3 to 7 days postxenografting. It is filed as functional. The note with it: route intraperitoneal.
Assay [5] addresses Histone deacetylase (Homo sapiens) (UniProt Q13547+O15379+Q9UBN7+Q92769+Q9UQL6+Q8WUI4+Q9BY41+Q96DB2+P56524+Q9UKV0+Q969S8). Description: Inhibition of HDAC from human HeLa cells at 500 nM.
Assay [6] has as its system P388. Kind of assay: Antitumor activity in mouse P388 cells xenografted B6D2F1 mouse assessed as increase in life span at 100 mg/kg/day, ip administered 3 to 7 days postxenografting. It is filed as functional. The note with it: route intraperitoneal.
In assay [7] the target is Histone deacetylase 1 (Homo sapiens, UniProt Q13547). Description: Inhibition of human recombinant HDAC1.
Chain of Histone deacetylase 1 (Q13547 whole entry): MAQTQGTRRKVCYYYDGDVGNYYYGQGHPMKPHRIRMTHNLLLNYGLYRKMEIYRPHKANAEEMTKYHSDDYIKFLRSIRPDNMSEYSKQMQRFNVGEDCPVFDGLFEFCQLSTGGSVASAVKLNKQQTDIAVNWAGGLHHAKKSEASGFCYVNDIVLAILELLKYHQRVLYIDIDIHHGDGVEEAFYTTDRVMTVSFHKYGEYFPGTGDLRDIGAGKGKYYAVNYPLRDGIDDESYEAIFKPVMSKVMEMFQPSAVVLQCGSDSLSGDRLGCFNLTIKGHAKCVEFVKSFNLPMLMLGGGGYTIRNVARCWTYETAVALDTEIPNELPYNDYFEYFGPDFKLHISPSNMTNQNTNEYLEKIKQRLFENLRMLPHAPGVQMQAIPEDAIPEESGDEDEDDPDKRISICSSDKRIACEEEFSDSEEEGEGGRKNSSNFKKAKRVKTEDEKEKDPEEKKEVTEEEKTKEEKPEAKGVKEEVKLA
The target of assay [8] is T1, Histone deacetylase 8 (Homo sapiens, UniProt Q9BY41).
T1 sequence (Q9BY41 whole entry): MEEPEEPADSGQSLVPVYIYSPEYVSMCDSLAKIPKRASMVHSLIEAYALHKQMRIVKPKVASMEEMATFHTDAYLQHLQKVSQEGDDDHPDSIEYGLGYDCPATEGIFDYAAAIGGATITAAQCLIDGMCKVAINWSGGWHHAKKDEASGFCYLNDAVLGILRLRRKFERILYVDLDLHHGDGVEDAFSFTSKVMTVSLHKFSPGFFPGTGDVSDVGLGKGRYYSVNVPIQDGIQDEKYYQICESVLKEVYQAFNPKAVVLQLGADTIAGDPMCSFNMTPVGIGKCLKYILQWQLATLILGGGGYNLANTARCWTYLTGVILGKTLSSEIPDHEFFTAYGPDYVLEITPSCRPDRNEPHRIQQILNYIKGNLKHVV
Kind of assay: Inhibition of human recombinant HDAC8.

Assay [9] deals with Histone deacetylase 3 (Homo sapiens, UniProt O15379). Kind of assay: Inhibition of human recombinant HDAC3.
Chain of Histone deacetylase 3 (O15379 whole entry): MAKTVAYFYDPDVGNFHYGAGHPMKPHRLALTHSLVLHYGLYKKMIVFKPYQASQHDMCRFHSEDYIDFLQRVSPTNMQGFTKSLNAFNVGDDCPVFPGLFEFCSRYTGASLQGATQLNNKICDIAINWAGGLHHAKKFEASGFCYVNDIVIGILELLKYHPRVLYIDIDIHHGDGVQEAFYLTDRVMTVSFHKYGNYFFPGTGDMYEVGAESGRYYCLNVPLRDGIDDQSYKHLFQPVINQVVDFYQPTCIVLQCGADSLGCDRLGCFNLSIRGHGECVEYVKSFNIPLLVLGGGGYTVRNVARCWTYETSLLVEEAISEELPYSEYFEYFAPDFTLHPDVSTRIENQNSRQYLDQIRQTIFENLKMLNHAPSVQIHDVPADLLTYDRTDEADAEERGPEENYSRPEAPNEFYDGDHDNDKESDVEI
In assay [10] the target is Histone deacetylase 4 (Homo sapiens, UniProt P56524). Description: Inhibition of human recombinant HDAC4.
Chain of Histone deacetylase 4 (P56524 whole entry): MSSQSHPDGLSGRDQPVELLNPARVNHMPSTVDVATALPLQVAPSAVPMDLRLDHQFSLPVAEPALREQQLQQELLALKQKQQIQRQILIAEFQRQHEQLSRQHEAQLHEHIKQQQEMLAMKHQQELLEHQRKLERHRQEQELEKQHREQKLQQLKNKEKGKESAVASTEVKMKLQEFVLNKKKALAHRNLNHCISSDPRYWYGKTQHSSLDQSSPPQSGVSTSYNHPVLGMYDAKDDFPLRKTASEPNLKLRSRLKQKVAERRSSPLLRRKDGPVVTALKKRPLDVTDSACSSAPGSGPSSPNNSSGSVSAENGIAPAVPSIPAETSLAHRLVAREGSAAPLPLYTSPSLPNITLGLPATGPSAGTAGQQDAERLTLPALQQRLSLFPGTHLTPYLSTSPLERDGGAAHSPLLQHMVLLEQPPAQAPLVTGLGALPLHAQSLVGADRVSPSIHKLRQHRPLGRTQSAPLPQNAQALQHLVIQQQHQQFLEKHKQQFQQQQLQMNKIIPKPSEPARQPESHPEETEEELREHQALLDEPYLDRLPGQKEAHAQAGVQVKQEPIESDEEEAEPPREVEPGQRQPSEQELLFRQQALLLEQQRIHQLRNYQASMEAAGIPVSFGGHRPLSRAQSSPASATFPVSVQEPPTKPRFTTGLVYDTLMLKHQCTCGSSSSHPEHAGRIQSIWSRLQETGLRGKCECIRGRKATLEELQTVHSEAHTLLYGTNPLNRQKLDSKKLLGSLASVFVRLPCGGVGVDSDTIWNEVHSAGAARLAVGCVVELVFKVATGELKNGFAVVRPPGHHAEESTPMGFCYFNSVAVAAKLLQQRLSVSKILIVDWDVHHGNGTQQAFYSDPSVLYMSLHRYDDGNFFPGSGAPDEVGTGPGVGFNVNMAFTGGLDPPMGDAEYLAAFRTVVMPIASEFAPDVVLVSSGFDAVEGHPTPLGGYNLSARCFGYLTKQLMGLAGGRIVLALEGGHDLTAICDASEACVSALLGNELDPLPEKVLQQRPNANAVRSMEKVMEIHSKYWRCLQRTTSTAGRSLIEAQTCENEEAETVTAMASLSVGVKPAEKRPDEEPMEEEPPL
The target in assay [11] is T2, Protein deacetylase HDAC6 (Homo sapiens, UniProt Q9UBN7).
T2 sequence (Q9UBN7 whole entry): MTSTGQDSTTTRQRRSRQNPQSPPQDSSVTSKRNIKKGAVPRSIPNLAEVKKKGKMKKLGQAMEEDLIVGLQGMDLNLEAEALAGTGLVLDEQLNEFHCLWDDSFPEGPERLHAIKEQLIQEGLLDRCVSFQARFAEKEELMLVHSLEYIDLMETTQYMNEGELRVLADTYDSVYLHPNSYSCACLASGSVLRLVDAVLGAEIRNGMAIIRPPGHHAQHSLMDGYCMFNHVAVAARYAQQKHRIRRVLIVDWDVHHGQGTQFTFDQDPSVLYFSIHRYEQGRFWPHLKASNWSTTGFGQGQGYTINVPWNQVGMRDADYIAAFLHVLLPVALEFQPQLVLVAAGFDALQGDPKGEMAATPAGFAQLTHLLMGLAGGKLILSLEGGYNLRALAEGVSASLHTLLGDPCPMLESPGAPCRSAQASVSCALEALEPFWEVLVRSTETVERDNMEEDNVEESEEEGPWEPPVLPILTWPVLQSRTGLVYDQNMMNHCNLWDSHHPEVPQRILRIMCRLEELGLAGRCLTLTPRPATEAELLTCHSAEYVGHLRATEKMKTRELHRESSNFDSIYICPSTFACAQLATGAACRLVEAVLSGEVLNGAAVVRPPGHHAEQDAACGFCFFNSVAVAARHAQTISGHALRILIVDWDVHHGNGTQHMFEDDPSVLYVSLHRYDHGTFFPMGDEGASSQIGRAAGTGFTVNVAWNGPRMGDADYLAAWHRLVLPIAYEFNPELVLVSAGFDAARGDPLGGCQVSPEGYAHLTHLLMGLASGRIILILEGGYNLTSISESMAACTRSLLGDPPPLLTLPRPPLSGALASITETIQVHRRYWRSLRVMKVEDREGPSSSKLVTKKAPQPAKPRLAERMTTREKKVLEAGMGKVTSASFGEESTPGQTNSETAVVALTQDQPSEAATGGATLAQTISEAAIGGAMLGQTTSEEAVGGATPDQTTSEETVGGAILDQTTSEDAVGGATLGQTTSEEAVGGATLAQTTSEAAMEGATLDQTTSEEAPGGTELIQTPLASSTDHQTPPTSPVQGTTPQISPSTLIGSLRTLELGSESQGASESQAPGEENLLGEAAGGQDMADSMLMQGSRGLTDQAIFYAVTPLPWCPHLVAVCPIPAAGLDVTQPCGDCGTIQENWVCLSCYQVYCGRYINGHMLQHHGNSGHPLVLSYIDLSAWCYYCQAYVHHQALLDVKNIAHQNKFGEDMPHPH
Description: Inhibition of human recombinant HDAC6.

In assay [12] the target is Histone deacetylase 9 (Homo sapiens, UniProt Q9UKV0). Description: Inhibition of human recombinant HDAC9.
Chain of Histone deacetylase 9 (Q9UKV0 whole entry): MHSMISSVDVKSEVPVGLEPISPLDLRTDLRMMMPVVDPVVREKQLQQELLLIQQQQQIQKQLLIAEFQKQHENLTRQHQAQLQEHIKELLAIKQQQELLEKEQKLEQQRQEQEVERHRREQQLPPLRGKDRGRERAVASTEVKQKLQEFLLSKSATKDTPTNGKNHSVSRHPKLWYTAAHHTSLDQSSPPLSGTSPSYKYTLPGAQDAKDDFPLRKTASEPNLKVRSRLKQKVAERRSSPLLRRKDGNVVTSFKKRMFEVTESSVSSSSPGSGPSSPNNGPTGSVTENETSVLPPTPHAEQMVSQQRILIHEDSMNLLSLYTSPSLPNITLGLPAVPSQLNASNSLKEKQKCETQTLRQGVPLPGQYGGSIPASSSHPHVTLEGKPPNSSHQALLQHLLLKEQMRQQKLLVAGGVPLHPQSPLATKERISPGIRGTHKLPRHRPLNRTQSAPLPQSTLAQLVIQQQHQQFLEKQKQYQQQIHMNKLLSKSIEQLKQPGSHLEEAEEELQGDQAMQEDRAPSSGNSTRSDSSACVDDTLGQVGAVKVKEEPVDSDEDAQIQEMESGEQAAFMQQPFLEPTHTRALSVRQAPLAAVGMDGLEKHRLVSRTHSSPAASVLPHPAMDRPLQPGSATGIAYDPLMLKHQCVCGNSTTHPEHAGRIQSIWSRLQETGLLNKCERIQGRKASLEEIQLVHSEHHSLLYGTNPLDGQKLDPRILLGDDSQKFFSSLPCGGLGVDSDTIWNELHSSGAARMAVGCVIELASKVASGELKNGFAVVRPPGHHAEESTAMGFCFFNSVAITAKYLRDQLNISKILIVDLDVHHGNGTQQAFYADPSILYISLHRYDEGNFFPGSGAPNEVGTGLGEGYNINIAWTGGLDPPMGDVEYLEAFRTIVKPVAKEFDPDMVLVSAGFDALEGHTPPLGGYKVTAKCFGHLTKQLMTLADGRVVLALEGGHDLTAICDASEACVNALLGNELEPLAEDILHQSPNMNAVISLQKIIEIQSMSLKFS
For assay [13], the target named is Histone deacetylase 2 (Homo sapiens, UniProt Q92769). Kind of assay: Inhibition of human recombinant HDAC2.
Chain of Histone deacetylase 2 (Q92769 whole entry): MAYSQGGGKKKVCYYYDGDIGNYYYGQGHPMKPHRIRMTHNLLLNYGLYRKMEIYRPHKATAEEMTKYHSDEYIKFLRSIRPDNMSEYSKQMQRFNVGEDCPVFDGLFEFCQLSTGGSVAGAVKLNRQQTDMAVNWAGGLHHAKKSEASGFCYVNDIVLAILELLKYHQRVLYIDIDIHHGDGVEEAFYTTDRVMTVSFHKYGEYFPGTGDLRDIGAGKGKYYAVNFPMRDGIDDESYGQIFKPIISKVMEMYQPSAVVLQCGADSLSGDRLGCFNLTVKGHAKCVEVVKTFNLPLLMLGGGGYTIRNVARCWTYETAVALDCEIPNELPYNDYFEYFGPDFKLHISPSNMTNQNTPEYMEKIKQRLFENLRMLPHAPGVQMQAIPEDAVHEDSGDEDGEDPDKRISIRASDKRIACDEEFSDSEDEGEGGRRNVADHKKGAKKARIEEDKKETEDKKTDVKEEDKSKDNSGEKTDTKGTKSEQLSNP

Broadly, the IC50 is the concentration that gives 50% inhibition. Broadly, the inhibition is the change of the read-out against control, counted positive when it falls. A higher inhibition goes with a strong effect.

Molecules are shown by their SMILES.

For `O=C(C#Cc1ccccc1)NCCCCCC(=O)NO`, the IC50 was determined as 10.6 µM in [1] (4 h) and 62 nM in assay [2].

In assay [1] (48 h), `O=C(/C=C/c1ccc(Cl)cc1F)NCCCCCC(=O)NO` displayed a half-maximal inhibitory concentration (IC50) of 6.3 µM. The Activity in assay [3] worked out at 22%; in assay [4], 0%.

In the case of `CN(C)c1ccc(CC(=O)NCCCCCC(=O)NO)cc1`, inhibition in assay [1] (48 h) was half-maximal at 52.7 µM (IC50). For the same molecule, the inhibition in [5] is 9%.

Turning to `CC(/C=C/c1ccccc1)=C\C(=O)NCCCCCC(=O)NO`, the IC50 in [1] (48 h) was 4.8 µM.

With `O=C(CCCCCNC(=O)Cc1ccc(-c2ccccc2)cc1)NO`, in assay [1] (48 h), the IC50 came to 35.9 µM. The same molecule displayed an inhibition in assay [5] of 51%.

As for `O=C(/C=C/c1cccnc1)NCCCCCC(=O)NO.O=C(O)C(=O)O`, the IC50 in [1] (48 h) worked out at 28.4 µM; in assay [2], 141 nM.

As to `O=C(CCCCCCC(=O)Nc1ccccc1)NO` [VORINOSTAT], the Activity in [6] turned out to be 14%; in assay [3] it was 0%; in [4], 11%.

Regarding `O=C(CCCCCCNC(=O)c1ccc2ccccc2c1)NO`, in [1] (48 h), the IC50 amounted to 0.4 µM.

Turning to `CC(/C=C/C(=O)NCCCC(=O)NO)=C\c1ccccc1`, the IC50 in assay [1] (48 h) came to 114 µM; in [2], 22850 nM.

Regarding `O=C(/C=C/c1ccncc1)NCCCCCC(=O)NO.O=C(O)C(=O)O`, the figures for the IC50 in assay [1] (48 h) and in assay [2] were 46.4 µM and 101 nM, respectively.

In the case of `O=C(CCCCCNC(=O)CC/C=C/c1ccccc1)NO`, the IC50 in [1] (48 h) came to 20.6 µM; in assay [2], 625 nM.

Turning to `O=C(/C=C/c1ccccn1)NCCCCCC(=O)NO.O=C(O)C(=O)O`, the IC50 in [1] (48 h) came out at 9.5 µM; in assay [2], 46 nM.

The molecule `O=C(/C=C/c1ccc2cccnc2c1)NCCCCCC(=O)NO` registered an IC50 in assay [1] (48 h) of 12.3 µM. Also, the Activity in assay [3] stood at 111%; in assay [4] it was 0%.

The molecule `O=C(CCCCCNC(=O)CCc1ccccc1)NO` came in with an IC50 in [1] (48 h) of 74.8 µM. In assay [5], the inhibition came out at 27%.

Take `O=C(CCCCCNC(=O)CCCc1ccccc1)NO`: in [1] (48 h), the 50% inhibitory concentration (IC50) came out at 52.7 µM. The inhibition in [5] is 19%.

Consider `O=C(C=C1c2ccccc2CCc2ccccc21)NCCCCCC(=O)NO`, for which the IC50 in assay [1] (48 h) turned out to be 9.9 µM; in assay [2], 338 nM.

On to `O=C(/C=C/c1ccc2ccccc2c1)NCCCCCC(=O)NO`, for which the figures for the IC50 in [1] (48 h) and in assay [2] were 18.3 µM and 7 nM, respectively.

On to `O=C(CCCCCNC(=O)c1ccc(-c2ccccc2)cc1)NO`, for which the results for the IC50 in assay [1] (48 h) and in assay [2] were 2.6 µM and 38 nM, respectively.

Take `O=C(C=C1c2ccccc2-c2ccccc21)NCCCCCC(=O)NO`: the IC50 in assay [1] (48 h) amounted to 1.7 µM; in assay [7] it was 1.6 nM; in assay [8], 779 nM; in assay [9] it was 2.8 nM; in [2], 5 nM; in [10], 1.2 nM. The IC50 in assay [11] was 2 nM; in assay [12], 2.3 nM; in assay [13], 0.8 nM. The Activity in assay [3] worked out at 78%; in [4] it was 11%.

With `O=C(/C=C/C=C/c1ccccc1)NCCCCCC(=O)NO`, the values for the IC50 in assay [1] (48 h) and in [2] were 5.1 µM and 29 nM, respectively.

Turning to `O=C(CCCCCNC(=O)C/C=C/c1ccccc1)NO`, it took 24 µM to reach half-maximal inhibition in [1] (48 h) (IC50). Moreover, the inhibition in assay [5] was found to be 53%.

`O=C(CCCCCCCNC(=O)c1ccc2ccccc2c1)NO`: the IC50 turned out to be 3.6 µM in assay [1] (48 h) and 28 nM in [2].

Regarding `CN(C)c1ccc(C(=O)NCCCCCC(=O)NO)cc1`, the IC50 in [1] (48 h) was found to be 4.1 µM.

Take `O=C(CCCCCNC(=O)CCCCc1ccccc1)NO`: the IC50 in [1] (48 h) worked out at 70.8 µM. This molecule gave an inhibition in assay [5] of 51%.

`O=C(CCCCCCC(=O)NCCc1ccccc1)NO`: in assay [1] (48 h), the IC50 amounted to 13.3 µM. The inhibition in assay [5] is 46%.

Regarding `O=C(/C=C/c1ccccc1)NCCCCCC(=O)NO`, the IC50 in assay [1] (48 h) amounted to 5.5 µM; in assay [2], 32 nM.

`O=C(CCCCCCC(=O)NCc1ccccc1)NO`: the midpoint of inhibition in assay [1] (48 h), the IC50, lay at 44.2 µM. The molecule further yielded an inhibition in [5] of 39%.

Consider `O=C(/C=C/c1cccc2cccnc12)NCCCCCC(=O)NO`, for which the IC50 in assay [1] (48 h) worked out at 20.9 µM; in [2], 25 nM.

`O=C(C=C(c1ccccc1)c1ccccc1)NCCCCCC(=O)NO`: the IC50 in assay [1] (48 h) came out at 8.5 µM; in assay [2], 201 nM.

Consider `O=C(CCCCNC(=O)c1ccc2ccccc2c1)NO`, for which the IC50 in assay [1] (48 h) stood at 24.7 µM. Also, in assay [5], the inhibition stood at 42%.
